Values after ≈ are worked out from the molar mass of the structure shown.
Assays:
Assay type in all cases: functional
[1] = tested on: Meyerozyma guilliermondii; assay: Minimum inhibitory concentration against Candida guilliermondii FP587 strain
[2] = species on record: Mus musculus; assay: Hemolytic ability to hemolyze ICR mouse RBCs in microtiter red blood cell hemolysis assay; set-up: concentration or dose not given beside the values
[3] = tested on: Candida tropicalis; assay: Minimum inhibitory concentration against Candida tropicalis 8002 strain
[4] = tested on: Candida albicans; assay: Minimum inhibitory concentration against Candida albicans FP579 strain
[5] = tested on: Candida tropicalis; assay: Minimum inhibitory concentration against Candida tropicalis 8001 strain
[6] = tested on: Candida albicans; assay: Minimum inhibitory concentration against Candida albicans FP633 strain
[7] = tested on: Candida parapsilosis; assay: Minimum inhibitory concentration against Candida parapsilosis 15001 strain; conditions: Lodderomyces parapsilosis
[8] = tested on: Mus musculus; assay: In vivo activity in Disseminated Murine Candidiasis Model
[9] = tested on: Aspergillus fumigatus; assay: In vitro minimum inhibitory concentration against Aspergillus fumigatus TIMM0063 FPI305 was determined by the broth microdilution method.
[10] = tested on: Mus musculus; assay: (§1) Ratio of In vivo activity of drug in Disseminated Murine Candidiasis Model to that of In vivo activity of FR-901469 in Disseminated Murine Candidiasis Model
[11] = as §1

| Compound | MIC [1] [µg/mL] | Hemolysis [2] [%] | MIC [3] [µg/mL] | MIC [4] [µg/mL] | MIC [5] [µg/mL] | MIC [6] [µg/mL] | MIC [7] [µg/mL] | ED50 [8] [mg/kg] | MIC [9] [µg/mL] | Ratio [10] | Ratio [11] |
| --- | --- | --- | --- | --- | --- | --- | --- | --- | --- | --- | --- |
| CCCCCCCCCCCCC[C@@H]1CC(=O)N[C@H]([C@@H](C)O)C(=O)N[C@H](C)C(=O)N[C@@H](Cc2ccc(O)cc2)C(=O)N[C@@H](C(C)C)C(=O)N2C[C@H](O)C[C@H]2C(=O)N[C@H]([C@@H](C)O)C(=O)N[C@@H]([C@@H](C)O)C(=O)N2CC[C@H](O)[C@H]2C(=O)N[C@@H]([C@H](O)CC(N)=O)C(=O)NCC(=O)N[C@H]([C@@H](C)O)C(=O)N[C@@H](CCCNC(=O)CO)C(=O)O1 | 0.39 (≈ 0.245 µM) | 9 | 0.78 (≈ 0.49 µM) | 0.78 (≈ 0.49 µM) | 1.56 (≈ 0.98 µM) | 0.39 (≈ 0.245 µM) | 0.78 (≈ 0.49 µM) |  |  |  |  |
| CCCCCCCCCCCCC[C@@H]1CC(=O)N[C@H]([C@@H](C)O)C(=O)N[C@H](C)C(=O)N[C@@H](Cc2ccc(O)cc2)C(=O)N[C@@H](C(C)C)C(=O)N2C[C@H](O)C[C@H]2C(=O)N[C@H]([C@@H](C)O)C(=O)N[C@@H]([C@@H](C)O)C(=O)N2CC[C@H](O)[C@H]2C(=O)N[C@@H]([C@H](O)CC(N)=O)C(=O)NCC(=O)N[C@H]([C@@H](C)O)C(=O)N[C@@H](CCCNC(C)=O)C(=O)O1 | 0.78 (≈ 0.495 µM) | 5 | 1.56 (≈ 0.99 µM) | 0.78 (≈ 0.495 µM) | 1.56 (≈ 0.99 µM) | 0.39 (≈ 0.247 µM) | 1.56 (≈ 0.99 µM) | 4 | 1 (≈ 0.635 µM) | 6.2 |  |
| CCCCCCCCCCCCC[C@@H]1CC(=O)N[C@H]([C@@H](C)O)C(=O)N[C@H](C)C(=O)N[C@@H](Cc2ccc(O)cc2)C(=O)N[C@@H](C(C)C)C(=O)N2C[C@H](O)C[C@H]2C(=O)N[C@H]([C@@H](C)O)C(=O)N[C@@H]([C@@H](C)O)C(=O)N2CC[C@H](O)[C@H]2C(=O)N[C@@H]([C@H](O)CC(N)=O)C(=O)NCC(=O)N[C@H]([C@@H](C)O)C(=O)N[C@@H](CCCNC(=O)[C@@H](N)CCCN)C(=O)O1.Cl | 0.39 | 20 | 1.56 | 0.78 | 1.56 | 0.39 | 0.39 | 0.54 | 0.5 |  | 0.8 |
| CCCCCCCCCCCCC[C@@H]1CC(=O)N[C@H]([C@@H](C)O)C(=O)N[C@H](C)C(=O)N[C@@H](Cc2ccc(O)cc2)C(=O)N[C@@H](C(C)C)C(=O)N2C[C@H](O)C[C@H]2C(=O)N[C@H]([C@@H](C)O)C(=O)N[C@@H]([C@@H](C)O)C(=O)N2CC[C@H](O)[C@H]2C(=O)N[C@@H]([C@H](O)CC(N)=O)C(=O)NCC(=O)N[C@H]([C@@H](C)O)C(=O)N[C@@H](CCCNC(=O)CN)C(=O)O1.Cl | 0.78 | 67 | 0.78 | 0.78 | 0.78 | 0.39 | 0.78 |  | 0.5 |  |  |
| CCCCCCCCCCCCC[C@@H]1CC(=O)N[C@H]([C@@H](C)O)C(=O)N[C@H](C)C(=O)N[C@@H](Cc2ccc(O)cc2)C(=O)N[C@@H](C(C)C)C(=O)N2C[C@H](O)C[C@H]2C(=O)N[C@H]([C@@H](C)O)C(=O)N[C@@H]([C@@H](C)O)C(=O)N2CC[C@H](O)[C@H]2C(=O)N[C@@H]([C@H](O)CC(N)=O)C(=O)NCC(=O)N[C@H]([C@@H](C)O)C(=O)N[C@@H](CCCNC(=O)[C@@H]2CCN2)C(=O)O1.Cl | 0.78 | 27 | 0.39 | 0.78 | 0.39 | 0.39 | 0.78 |  |  |  |  |
| CCCCCCCCCCCCC[C@@H]1CC(=O)N[C@H]([C@@H](C)O)C(=O)N[C@H](C)C(=O)N[C@@H](Cc2ccc(O)cc2)C(=O)N[C@@H](C(C)C)C(=O)N2C[C@H](O)C[C@H]2C(=O)N[C@H]([C@@H](C)O)C(=O)N[C@@H]([C@@H](C)O)C(=O)N2CC[C@H](O)[C@H]2C(=O)N[C@@H]([C@H](O)CC(N)=O)C(=O)NCC(=O)N[C@H]([C@@H](C)O)C(=O)N[C@@H](CCCNC(=O)CCCCN)C(=O)O1.Cl | 0.39 | 20 | 0.78 | 0.78 | 0.78 | 0.39 | 0.39 |  |  |  |  |
| CCCCCCCCCCCCC[C@@H]1CC(=O)N[C@H]([C@@H](C)O)C(=O)N[C@H](C)C(=O)N[C@@H](Cc2ccc(O)cc2)C(=O)N[C@@H](C(C)C)C(=O)N2C[C@H](O)C[C@H]2C(=O)N[C@H]([C@@H](C)O)C(=O)N[C@@H]([C@@H](C)O)C(=O)N2CC[C@H](O)[C@H]2C(=O)N[C@@H]([C@H](O)CC(N)=O)C(=O)NCC(=O)N[C@H]([C@@H](C)O)C(=O)N[C@@H](CCCNC(=O)CCN)C(=O)O1.Cl | 0.39 | 44 | 0.78 | 0.39 | 0.78 | 0.39 | 0.39 |  |  |  |  |
| CCCCCCCCCCCCC[C@@H]1CC(=O)N[C@H]([C@@H](C)O)C(=O)N[C@H](C)C(=O)N[C@@H](Cc2ccc(O)cc2)C(=O)N[C@@H](C(C)C)C(=O)N2C[C@H](O)C[C@H]2C(=O)N[C@H]([C@@H](C)O)C(=O)N[C@@H]([C@@H](C)O)C(=O)N2CC[C@H](O)[C@H]2C(=O)N[C@@H]([C@H](O)CC(N)=O)C(=O)NCC(=O)N[C@H]([C@@H](C)O)C(=O)N[C@@H](CCCNC(=O)CCCN)C(=O)O1.Cl | 0.78 | 30 | 0.78 | 1.56 | 1.56 | 0.78 | 0.78 |  |  |  |  |
| CCCCCCCCCCCCC[C@@H]1CC(=O)N[C@H]([C@@H](C)O)C(=O)N[C@H](C)C(=O)N[C@@H](Cc2ccc(O)cc2)C(=O)N[C@@H](C(C)C)C(=O)N2C[C@H](O)C[C@H]2C(=O)N[C@H]([C@@H](C)O)C(=O)N[C@@H]([C@@H](C)O)C(=O)N2CC[C@H](O)[C@H]2C(=O)N[C@@H]([C@H](O)CC(N)=O)C(=O)NCC(=O)N[C@H]([C@@H](C)O)C(=O)N[C@@H](CCCNC(=O)CCCCCN)C(=O)O1.Cl | 0.78 | 14 | 0.78 | 0.78 | 0.78 | 0.39 | 0.39 |  |  |  |  |
| CCCCCCCCCCCCC[C@@H]1CC(=O)N[C@H]([C@@H](C)O)C(=O)N[C@H](C)C(=O)N[C@@H](Cc2ccc(O)cc2)C(=O)N[C@@H](C(C)C)C(=O)N2C[C@H](O)C[C@H]2C(=O)N[C@H]([C@@H](C)O)C(=O)N[C@@H]([C@@H](C)O)C(=O)N2CC[C@H](O)[C@H]2C(=O)N[C@@H]([C@H](O)CC(N)=O)C(=O)NCC(=O)N[C@H]([C@@H](C)O)C(=O)N[C@@H](CCCNC(=O)CN(C)C)C(=O)O1.Cl | 0.2 | 10 | 0.78 | 0.78 | 0.78 | 0.39 | 0.39 | 9.1 | 0.5 | 10.4 |  |
| CCCCCCCCCCCCC[C@@H]1CC(=O)N[C@H]([C@@H](C)O)C(=O)N[C@H](C)C(=O)N[C@@H](Cc2ccc(O)cc2)C(=O)N[C@@H](C(C)C)C(=O)N2C[C@H](O)C[C@H]2C(=O)N[C@H]([C@@H](C)O)C(=O)N[C@@H]([C@@H](C)O)C(=O)N2CC[C@H](O)[C@H]2C(=O)N[C@@H]([C@H](O)CC(N)=O)C(=O)NCC(=O)N[C@H]([C@@H](C)O)C(=O)N[C@@H](CCCNC(=O)CNC)C(=O)O1.Cl | 0.39 | 54 | 0.78 | 0.39 | 0.78 | 0.2 | 0.39 |  |  |  |  |
| CCCCCCCCCCCCC[C@@H]1CC(=O)N[C@H]([C@@H](C)O)C(=O)N[C@H](C)C(=O)N[C@@H](Cc2ccc(O)cc2)C(=O)N[C@@H](C(C)C)C(=O)N2C[C@H](O)C[C@H]2C(=O)N[C@H]([C@@H](C)O)C(=O)N[C@@H]([C@@H](C)O)C(=O)N2CC[C@H](O)[C@H]2C(=O)N[C@@H]([C@H](O)CC(N)=O)C(=O)NCC(=O)N[C@H]([C@@H](C)O)C(=O)N[C@@H](CCCN)C(=O)O1.Cl | 0.39 | 100 | 0.39 | 0.39 | 0.39 | 0.39 | 0.39 | 0.44 | 0.5 |  |  |
| C[C@@H]1[C@H](O)[C@@H](C)/C=C/C=C/C=C/C=C/C=C/C=C/C=C/[C@H](O[C@@H]2O[C@H](C)[C@@H](O)[C@H](N)[C@@H]2O)C[C@@H]2O[C@](O)(C[C@@H](O)C[C@@H](O)[C@H](O)CC[C@@H](O)C[C@@H](O)CC(=O)O[C@H]1C)C[C@H](O)[C@H]2C(=O)O [AMPHOTERICIN B] |  |  |  |  |  |  |  | 0.132 |  |  |  |
| OC(Cn1cncn1)(Cn1cncn1)c1ccc(F)cc1F [FLUCONAZOLE] |  |  |  |  |  |  |  | > 20 |  |  |  |

From ChEMBL document CHEMBL1134430, “Synthesis and biological activity of novel macrocyclic antifungals: acylated conjugates of the ornithine moiety of the lipopeptidolactone FR901469” (2001)
